Data from patent US11760795B2, “Monoclonal antibodies to growth and differentiation factor 15 (GDF-15), and uses thereof for treating cancer cachexia and cancer” (JULIUS-MAXIMILIANS-UNIVERSITÄT WÜRZBURG, priority 2014, dated 2023).
Several values for one entry are separate records, joined by “and”; a condition that tells them apart may be missing. Equal entries are not always repeated.

How the values were obtained:
[1] = Study No. 140123: feed consumption of UACC-257 inoculated mice; type: in vivo, Balb/c^nu/nu mice; settings: average over day 17-34 intervals, with standard deviation
Experimental: Treatment of cancer-induced weight loss with anti-GDF-15 antibodies. In the underlying animal study No. 140123, 10 Balb/c^nu/nu mice per treatment group were subcutaneously inoculated with 10×10^6 UACC-257 cells per animal in a 1:1 volume ratio with matrigel (100 μl cells+100 μl matrigel). The animals were treated on the same day with the respective antibodies, as indicated below:
In addition to evaluating the mean body weight of the mice, the feed consumption of the mice was evaluated by pairwise comparisons of the study groups (Table 1).

[2] = comparison value, antigen not given; read-out: equilibrium dissociation constant of therapeutic antibody; cited from earlier work
human GDF-15 = target: T1, human GDF-15 (Homo sapiens, UniProt Q99988); test: Kd determination by Surface Acoustic Wave (SAW) gold chip biosensors; type: binding; settings: murine B1-23 stabilized with 0.2% BSA, H1L5 as CHO supernatant
T1 sequence (Q99988 with tags, fused parts or gaps limits assumed): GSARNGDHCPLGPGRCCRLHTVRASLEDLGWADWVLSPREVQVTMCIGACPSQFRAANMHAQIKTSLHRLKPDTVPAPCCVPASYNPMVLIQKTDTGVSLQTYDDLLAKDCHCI
From the text: Determination of Kd values of anti-GDF-15 antibodies. The Kd values of different anti-GDF-15 antibodies were compared using Surface Acoustic Wave (SAW) gold chip biosensors technology (SAW Instruments GmbH, Schwertberger Str. 16, D-53177 Bonn, Germany):
The murine antibody (B1-23) as well as the chimeric B1-23 antibody were present in purified form. The H1L5 humanized B1-23 antibody was a serum-free CHO cell culture supernatant.

Molecule: CN(C)/N=N/c1[nH]cnc1C(N)=O [dacarbazine, Dacarbazine, reference compound]
- Feed consumption per mouse and day [1]: 2.8 ± 0.2 g

Molecule: Rituximab: therapeutically used antibody; control antibody in SAW assay
- Kd [2]: ~8 nM and 8 nM
- Kd (human GDF-15): 1120 nM
